Reference: US20110269793A1, “METHOD FOR PREVENTING TAU PROTEIN AGGREGATION AND TREATING ALZHEIMER'S DISEASE WITH A QUINOLINE DERIVATIVE COMPOUND” (priority 2010, published 2011)
Like-named read-outs stand apart in the source and are kept apart here.

Tests used:
[1] = test system: tau protein from bovine brain; conditions: 7 days 37° C.; for Tau polymer concentration: tau 2.0 mg/mL, heparin 200 μg/mL, +control 3.00, −control 1.38
Experimental: (§1) Effect of the quinolines in the tau aggregation. Turbidimetric studies. Tau aggregation was monitored by means of its absorbance at λ 340 nm using UV spectrophotometry. Purified and highly concentrated tau protein from bovine brain (2.0 mg/mL) was re-suspended in MES 0.1 M pH 7.2 buffer and induced to polymerize in the form of PHFs in the presence of polyanions (heparin at a concentration of 200 μg/mL) at a final volume of 1.0 mL. This mixture was incubated at 37° C. and maintained under gentle agitation for 7 days. At the same time, another sample containing the tau protein, heparin (200 μg/mL) and the selected quinoline at different concentrations from 1.0 to 50 μM and a final volume of 1.0 mL was incubated in the same way, thus verifying the effect that quinolines have over tau aggregation. […] As an additional control the tau protein was replaced with water in order to measure the absorbance of these quinolines. Each sample was carried out in triplicate.
Effect of quinolines in tau aggregation. Sedimentation studies. After 7 days of incubation at 37° C. under gentle agitation, the sedimentation of the tau aggregates was conducted in the presence and in absence of quinolines. To this purpose, 400 μl were taken of each one of the samples prepared for the turbidimetric analysis and they were centrifuged at 42,000 g (18.000 rpm using the AH-650 rotor) at 37° C. for 25 min. The pellet obtained from each sample of this centrifugation was re-suspended in 50 μL of MES 0,1 M slightly alkaline (pH 7.2) buffer and the concentration of protein was established for each one of them. In this procedure, and because the sample volume is very small, a nanophotometer was used, measuring the concentration of the sedimented and re-suspended protein at λ 280 nm.

Human Tau (441a.a.) = Human Tau (441a.a.) (Homo sapiens, UniProt P10636); assay: Scatchard saturation test with ^3H-AST, tau filaments; assay type: binding; conditions: for Affinity to tau filaments (in words): saturation studies, FIG. 12
Text: (§2) Interactions of quinolines with tau and in vitro displacement tests with H^3-AST. In previous laboratory tests by the inventor and also from other authors (Okamura N., Suemoto T., Furumoto S., Suzuki M., Shimadzu H., Akatsu H., Yamamoto T., Fujiwara H., Nemoto M., Maruyama M., Arai H., Yanai K., Sawada T., Kudo Y. (2005), Quinoline and becimidazole derivatives: candidate probes for in vivo imaging of tau pathology in Alzheimer's disease, J. Neurosci. 25: 10857-10862; Rojo L., Avila M., Chandia M., and Maccioni R. B. (2007), ^18F Lansoprazole as PET radiotracer, Chemical and biological studies towards the development of a New PET Radiotracer, International Conference on Clinical PET and Molecular Nuclear Medicine. 10-14 November, Bangkok) the Kd and binding maximums specific to some benzimidazols of clinical use were established, among them [O-methyl-3H]-astemizol (FIG. 2) through the interaction established with the tau protein. With this background Scatchard and displacement tests are performed with the quinolines mentioned before.
(§3) For the Scatchard test a fixed tau protein concentration (230 nM) and variable concentrations of ^3H-AST between 10 and 120 nM was used, leading to a final volume of 20 μL with 8% ethanol (EtOH 8%). The tau protein underwent treatment previous to this test, incubating the same at 37° C. under gentle agitation for 7 days. Subsequently the tau protein and ^3H-AST were incubated for 4 h at 25° C. under gentle agitation. Then this solution was filtered under vacuum for 10 minutes and the filtering papers were dried at room temperature, and transferred to a vial with 1.0 mL of scintillating liquid. It is then left in the dark and finally the counts per minute (cpm) are measured in a scintillating counting equipment.

mGluR 5 = mGluR 5 (Homo sapiens, UniProt P41594); conditions: Yanamala et al. 2008; cited from earlier work
mGluR I = mGluR I (Homo sapiens, UniProt Q13255); conditions: Yanamala et al. 2008; cited from earlier work
[2] = Octanol/water partition coefficient (Log P); assay type: physicochemical; conditions: for Liposolubility expressed as Log P (in words): as candidates to cross the BHE; for logP: n-octanol / PBS 0.1× buffer, read-out: Log P (experimental)
Experimental: Pharm. Hung. 62 (1-2): 55-64, wherein 2 phases are used, an aqueous phase comprising a buffer solution PBS 0.1× pH 7.4 that is saturated with an n-octanol solution that comprises the organic phase.
Stock solutions at 1.0 mg/mL of each quinoline being studied were prepared in PBS buffer 0.1× pH 7.4 saturated in octanol. […] Starting from these solutions, dilutions were made for a range concentration of between 1.0 mg/mL and 100 μg/mL to establish their maximum absorbance in the UV-visible region.
Then the tested quinolines were dissolved in PBS 0.1× pH 7.4 saturated in n-octanol and agitated for 30 min. at room temperature. Subsequently, this emulsion was left to settle for 48 h and a centrifugation at 3,000 rpm for 10 minutes was carried out to separate the phases. Both the octanol/water partition coefficient and Log P were established using the difference in the absorbance in the UV-visible region for each compound using equation 1:
[THQ in octanol]=[THQ start]−[THQ buffer] Éq. 1:
The concentrations for THQ start are established using equation 2: […]
Subsequently, the P quotient in established between both phases as described by equation 3: […]
Finally the partition coefficient is established by Log P.
For this test 2 controls were used: clidinium bromide that is a quaternary amine that is not liposoluble, and sodium thiopental, which is a very liposoluble barbituric anaesthetic. Each part of the test was done in triplicate.

hTau protein [3] = target: T1, hTau protein (Homo sapiens, UniProt P10636); assay: biochemical
Experimental: (§4) Subsequently, the tau protein, ^3H-AST and the quinolines are incubated for 4 hours at 25° C. under gentle agitation and the procedure depicted in FIG. 3 is followed.

hTau protein [4] = target: T1, hTau protein; conditions: hTau 230 nM, ^3H-AST 52 nM, cold ligand 10 nM to 10 μM
Experimental: as §4

[5] = test system: tau protein from bovine brain; conditions: THQ 55 1.0 to 50 μM, FIG. 11
Experimental: as §1

Human PHFs = assay: Scatchard saturation test with ^3H-AST, PHFs; assay type: binding
Text: as §2, §3

[6] = partition coefficient octanol/PBS buffer 0.1× pH 7.4, triplicate
[7] = tau filaments induced with heparin

T1 sequence (P10636 with tags, fused parts or gaps): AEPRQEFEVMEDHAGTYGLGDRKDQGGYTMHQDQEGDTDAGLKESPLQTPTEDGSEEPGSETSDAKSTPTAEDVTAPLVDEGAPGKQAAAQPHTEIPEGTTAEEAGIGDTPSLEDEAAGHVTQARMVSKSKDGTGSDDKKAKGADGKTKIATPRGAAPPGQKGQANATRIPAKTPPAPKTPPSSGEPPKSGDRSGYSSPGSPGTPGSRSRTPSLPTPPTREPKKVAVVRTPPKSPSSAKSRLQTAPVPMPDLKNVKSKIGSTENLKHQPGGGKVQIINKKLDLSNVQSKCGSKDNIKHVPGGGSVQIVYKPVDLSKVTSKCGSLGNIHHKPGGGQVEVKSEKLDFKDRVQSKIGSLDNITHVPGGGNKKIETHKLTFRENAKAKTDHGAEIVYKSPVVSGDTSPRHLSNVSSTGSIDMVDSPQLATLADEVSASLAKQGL
Chain of Human Tau (441a.a.) (P10636 1-441 isoform P10636-8): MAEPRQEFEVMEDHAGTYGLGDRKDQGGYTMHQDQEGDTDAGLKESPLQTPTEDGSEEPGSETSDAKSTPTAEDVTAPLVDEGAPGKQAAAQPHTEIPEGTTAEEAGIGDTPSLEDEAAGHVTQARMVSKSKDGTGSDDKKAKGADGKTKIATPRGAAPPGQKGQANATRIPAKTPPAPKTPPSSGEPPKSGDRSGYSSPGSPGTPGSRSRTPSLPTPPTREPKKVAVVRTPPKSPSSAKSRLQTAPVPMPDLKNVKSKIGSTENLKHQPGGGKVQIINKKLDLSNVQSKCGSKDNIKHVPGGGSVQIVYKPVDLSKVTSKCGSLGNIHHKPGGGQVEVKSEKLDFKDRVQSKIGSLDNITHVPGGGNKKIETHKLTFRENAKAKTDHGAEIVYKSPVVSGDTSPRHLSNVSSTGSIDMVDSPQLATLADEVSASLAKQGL
Chain of mGluR 5 (P41594 21-1212): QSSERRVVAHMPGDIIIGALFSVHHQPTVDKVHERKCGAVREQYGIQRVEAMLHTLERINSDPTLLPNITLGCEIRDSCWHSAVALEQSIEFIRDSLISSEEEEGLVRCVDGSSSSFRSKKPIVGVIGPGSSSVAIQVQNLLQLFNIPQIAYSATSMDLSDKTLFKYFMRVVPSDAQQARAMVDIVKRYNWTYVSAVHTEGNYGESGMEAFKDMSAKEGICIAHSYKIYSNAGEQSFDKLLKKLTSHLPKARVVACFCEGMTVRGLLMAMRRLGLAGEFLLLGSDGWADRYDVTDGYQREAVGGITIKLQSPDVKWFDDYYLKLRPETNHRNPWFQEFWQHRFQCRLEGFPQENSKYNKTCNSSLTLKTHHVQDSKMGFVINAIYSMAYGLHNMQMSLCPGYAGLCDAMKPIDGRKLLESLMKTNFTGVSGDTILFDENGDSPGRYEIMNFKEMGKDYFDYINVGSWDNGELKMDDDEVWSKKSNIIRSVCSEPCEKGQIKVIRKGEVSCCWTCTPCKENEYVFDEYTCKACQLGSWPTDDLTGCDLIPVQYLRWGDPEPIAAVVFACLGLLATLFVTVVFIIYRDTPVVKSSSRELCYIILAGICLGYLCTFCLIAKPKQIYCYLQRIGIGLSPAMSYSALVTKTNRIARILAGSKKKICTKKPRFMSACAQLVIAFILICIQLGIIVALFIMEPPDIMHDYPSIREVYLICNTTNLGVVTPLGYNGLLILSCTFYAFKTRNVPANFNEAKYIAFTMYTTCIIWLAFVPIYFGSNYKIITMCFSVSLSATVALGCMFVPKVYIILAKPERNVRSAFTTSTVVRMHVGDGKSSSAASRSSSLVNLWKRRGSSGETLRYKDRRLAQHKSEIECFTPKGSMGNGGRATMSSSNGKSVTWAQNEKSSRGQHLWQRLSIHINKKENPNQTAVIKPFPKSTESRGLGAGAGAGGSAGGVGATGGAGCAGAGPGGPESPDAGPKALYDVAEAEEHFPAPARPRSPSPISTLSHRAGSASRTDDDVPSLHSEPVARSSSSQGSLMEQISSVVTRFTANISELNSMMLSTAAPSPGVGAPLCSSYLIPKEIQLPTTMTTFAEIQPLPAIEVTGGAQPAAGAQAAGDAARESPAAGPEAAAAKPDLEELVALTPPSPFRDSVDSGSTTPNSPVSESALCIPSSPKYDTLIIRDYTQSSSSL
Chain of mGluR I (Q13255 19-1194): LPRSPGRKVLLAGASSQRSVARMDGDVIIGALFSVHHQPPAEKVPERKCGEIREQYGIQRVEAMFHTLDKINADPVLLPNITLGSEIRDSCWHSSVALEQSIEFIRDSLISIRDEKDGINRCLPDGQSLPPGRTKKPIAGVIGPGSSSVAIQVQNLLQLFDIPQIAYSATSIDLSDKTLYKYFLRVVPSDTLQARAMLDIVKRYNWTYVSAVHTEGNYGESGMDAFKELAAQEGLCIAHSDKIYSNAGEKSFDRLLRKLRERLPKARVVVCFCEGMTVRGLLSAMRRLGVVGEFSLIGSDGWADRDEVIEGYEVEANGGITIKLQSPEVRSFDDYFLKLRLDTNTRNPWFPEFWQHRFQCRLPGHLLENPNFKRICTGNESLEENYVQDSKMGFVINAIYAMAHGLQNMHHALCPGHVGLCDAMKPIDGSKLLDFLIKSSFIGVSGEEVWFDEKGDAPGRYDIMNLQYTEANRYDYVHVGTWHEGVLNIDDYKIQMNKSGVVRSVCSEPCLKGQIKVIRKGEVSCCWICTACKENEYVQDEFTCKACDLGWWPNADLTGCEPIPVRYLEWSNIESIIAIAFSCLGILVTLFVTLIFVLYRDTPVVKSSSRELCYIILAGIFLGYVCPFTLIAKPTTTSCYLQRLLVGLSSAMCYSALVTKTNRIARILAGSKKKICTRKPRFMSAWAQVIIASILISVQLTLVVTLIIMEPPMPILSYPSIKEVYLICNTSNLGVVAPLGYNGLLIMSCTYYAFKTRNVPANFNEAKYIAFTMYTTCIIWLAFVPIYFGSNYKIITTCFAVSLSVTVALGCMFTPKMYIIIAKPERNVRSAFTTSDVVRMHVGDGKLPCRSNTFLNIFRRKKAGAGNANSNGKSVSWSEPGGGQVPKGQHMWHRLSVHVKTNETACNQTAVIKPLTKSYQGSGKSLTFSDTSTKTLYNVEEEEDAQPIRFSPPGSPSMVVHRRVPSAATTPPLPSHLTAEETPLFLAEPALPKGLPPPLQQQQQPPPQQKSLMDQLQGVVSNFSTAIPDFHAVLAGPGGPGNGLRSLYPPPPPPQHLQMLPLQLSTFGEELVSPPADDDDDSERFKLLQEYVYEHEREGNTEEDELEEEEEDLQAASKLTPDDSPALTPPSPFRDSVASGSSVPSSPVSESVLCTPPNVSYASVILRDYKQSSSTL

For COc1ccc(CCN2CCC(Nc3nc4ccccc4n3Cc3ccc(F)cc3)CC2)cc1 [Ast, Astemizol, reference compound], which Tau polymer concentration ([1]; compound 10 μM) is on record?
Its Tau polymer concentration is 2.84 + 0.002 mg/mL.

What about the “Affinity to tau filaments (in words)” value (Human Tau (441a.a.)) of the same compound?
The value was “high affinity”.

For Cc1cccc(C#Cc2ccccc2)n1 [MPEP], which “Docking Energies” value (mGluR 5) is on record?
Its value is -7.77 kcal/mol.

For O=C(Cc1ccccc1)c1ccc2nc3c(cc2c1)CCCO3 [R214127], which “Docking Energies” value (mGluR I) is on record?
Its value is -7.34 kcal/mol.

Which “Log P (experimental)” value [2, 6] does the source give for COc1ccc2nc(-c3ccc(C)cc3)ccc2c1 [THQ 3S, 2-(4-methylphenyl), 6-(O-methyl)quinoline] here?
The value was 0.434 + 0.005.

What does the source list for Cc1ccc(-c2ccc3cc(C)ccc3n2)cc1 [THQ 4S, 2-(4methylphenyl), 6-(methyl)quinoline]?
Liposolubility expressed as Log P (in words) [2]: optimal; logP [2, 6]: 2.66; Ki (hTau protein [3]): > 10000 nM; Displacement of the radioligand (hTau protein [4]): do not displace the radioligand

With Cc1ccc(-c2ccc3cccc(Br)c3n2)cc1 [THQ 9S, 2-(4-methylphenyl), 8-(bromo)quinoline] as the compound, how does the logP [2, 6] read?
The logP was -0.214.

For Cc1cccc(-c2ccc3cc(C)ccc3n2)c1 [THQ 12S, 2-(5-methylphenyl), 6-(methyl)quinoline], which “Liposolubility expressed as Log P (in words)” value [2] is on record?
Its value is “optimal”.

What about the logP [2, 6] of the same compound?
The logP was 2.58.

With Cc1ccc2nc(-c3ccc(N)cc3)ccc2c1 [THQ 55, 2-(4-aminophenyl), 6-(methyl)quinoline] as the compound, how does the “Effect over the auto-aggregation of tau protein (sedimented protein at λ 280 nm)” value [1] read?
Its value is “pronounced inhibitory effect”.

And the Tau polymer concentration ([1]; compound 1.0 μM)?
Its Tau polymer concentration is 2.72 + 0.002 mg/mL.

And the Tau polymer concentration ([1]; compound 10 μM)?
Its Tau polymer concentration is 2.43 + 0.003 mg/mL.

And the Tau polymer concentration ([1]; compound 50.0 μM)?
Its Tau polymer concentration is 0.79 + 0.004 mg/mL.

What about the “Liposolubility expressed as Log P (in words)” value [2] of the same compound?
The value was “optimal”.

And the logP [2, 6]?
The logP was 1.97.

And the Ki (hTau protein [3])?
The Ki was greater than 10000 nM.

What about the “Inhibition of tau aggregation (absorbance at λ 340)” value [5] of the same compound?
Its value is “high capacity to inhibit tau aggregation”.

And the “Displacement of the radioligand” value (hTau protein [4])?
Its value is “do not displace the radioligand”.

For COc1ccc(CCN2CCC(Nc3nc4ccccc4n3Cc3ccc(F)cc3)CC2)cc1 [^3H-AST, [O-methyl-3H]-astemizol], which Kd (Human Tau (441a.a.); [7]) is on record?
Its Kd is 1.86 nM.

And the Kd (Human PHFs)?
The Kd was 3.94 nM.

For [3H]COc1ccc(CCN2CCC(Nc3nc4ccccc4n3Cc3ccc(F)cc3)CC2)cc1 [^3H-AST, [O-methyl-3H]-astemizol], which Bmax/Kd index (Human Tau (441a.a.)) is on record?
Its Bmax/Kd index is 3.00.

And the “Affinity to tau filaments (in words)” value (Human Tau (441a.a.))?
Its value is “high affinity”.

What about the Bmax (Human Tau (441a.a.); [7]) of the same compound?
The Bmax was 5.7 pmol/nmol tau.

And the Bmax (Human PHFs)?
The Bmax was 13.07 nM.

What about the Bmax/Kd index (Human PHFs) of the same compound?
The Bmax/Kd index was 3.316.
